The subject of the first data set is a variety of test species. The data set can be described thus: Post-emergence herbicidal activity (glasshouse, sprayed after 8 days cultivation, evaluated after 13 days). The settings on record: Abutilon theophrasti, rate 1000 g/Ha, scale 0-5. It is filed as in vivo. The arrangement: key: 5=total damage to plant; 0=no damage to plant. In a few lines: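 Damage was rated 0-5 (5 = total) 13 days after a post-emergence spray of acetone/water (50:50) plus 0.5% Tween 20 formulation. Plants were sprayed at 8 days' growth and kept at 24/16° C, 14 h light, 65% humidity, watered twice daily.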
Turning to `CCC1=C(Br)C(=O)N(c2noc(C(C)(C)C)c2C#N)C1O` (centres unmarked) [A55], the “ABUTH (Abutilon theophrasti) damage score, application post-emergence” value (“ABUTH … application post-emergence” for short) stood at 5.

In the case of `CCC1=C(Cl)C(=O)N(c2noc(C(C)(C)C)c2C#N)C1O` (centres unmarked) [A58], the “ABUTH … application post-emergence” value is given as 5.

Regarding `CCC1=C(Cl)C(=O)N(c2noc(C(C)(C)CC)c2C#N)C1O` (centres unmarked) [A60], the “ABUTH … application post-emergence” value is given as 5.

On to `CC1=C(Br)C(=O)N(c2noc(C(C)C)c2C#N)C1O` (centres unmarked) [A61], for which the “ABUTH … application post-emergence” value is reported as 5.

As to `CCC1=C(Br)C(=O)N(c2noc(C(C)C)c2C#N)C1O` (centres unmarked) [A62], the “ABUTH … application post-emergence” value turned out to be 5.

The same data set, now with this note: Alopecurus myosuroides, rate 1000 g/Ha, scale 0-5.
Regarding `CCC1=C(Br)C(=O)N(c2noc(C(C)(C)C)c2C#N)C1O` (centres unmarked) [A55], the “ALOMY (Alopecurus myosuroides) damage score, application post-emergence” value (“ALOMY … application post-emergence” for short) was 5.

Turning to `CCC1=C(Cl)C(=O)N(c2noc(C(C)(C)C)c2C#N)C1O` (centres unmarked) [A58], the “ALOMY … application post-emergence” value amounted to 5.

Take `CCC1=C(Cl)C(=O)N(c2noc(C(C)(C)CC)c2C#N)C1O` (centres unmarked) [A60]: the “ALOMY … application post-emergence” value came out at 4.

As for `CC1=C(Br)C(=O)N(c2noc(C(C)C)c2C#N)C1O` (centres unmarked) [A61], the “ALOMY … application post-emergence” value stood at 5.

Turning to `CCC1=C(Br)C(=O)N(c2noc(C(C)C)c2C#N)C1O` (centres unmarked) [A62], the “ALOMY … application post-emergence” value is 4.

The data set is the same for the next values; noted with them: Amaranthus retroflexus, rate 1000 g/Ha, scale 0-5.
For `CCC1=C(Br)C(=O)N(c2noc(C(C)(C)C)c2C#N)C1O` (centres unmarked) [A55], the “AMARE (Amaranthus retroflexus) damage score, application post-emergence” value (“AMARE … application post-emergence” for short) was determined as 5.

`CCC1=C(Cl)C(=O)N(c2noc(C(C)(C)C)c2C#N)C1O` (centres unmarked) [A58]: the “AMARE … application post-emergence” value stood at 5.

As for `CCC1=C(Cl)C(=O)N(c2noc(C(C)(C)CC)c2C#N)C1O` (centres unmarked) [A60], the “AMARE … application post-emergence” value was determined as 5.

As for `CC1=C(Br)C(=O)N(c2noc(C(C)C)c2C#N)C1O` (centres unmarked) [A61], the “AMARE … application post-emergence” value worked out at 5.

For the compound `CCC1=C(Br)C(=O)N(c2noc(C(C)C)c2C#N)C1O` (centres unmarked) [A62], the “AMARE … application post-emergence” value is on record as 5.

Staying with this data set, now noted: Echinochloa crus-galli, rate 1000 g/Ha, scale 0-5.
Regarding `CCC1=C(Br)C(=O)N(c2noc(C(C)(C)C)c2C#N)C1O` (centres unmarked) [A55], the “ECHCG (Echinochloa crus-galli) damage score, application post-emergence” value (“ECHCG … application post-emergence” for short) is 5.

Turning to `CCC1=C(Cl)C(=O)N(c2noc(C(C)(C)C)c2C#N)C1O` (centres unmarked) [A58], the “ECHCG … application post-emergence” value was found to be 5.

Consider `CCC1=C(Cl)C(=O)N(c2noc(C(C)(C)CC)c2C#N)C1O` (centres unmarked) [A60], for which the “ECHCG … application post-emergence” value is 5.

In the case of `CC1=C(Br)C(=O)N(c2noc(C(C)C)c2C#N)C1O` (centres unmarked) [A61], the “ECHCG … application post-emergence” value is listed as 5.

`CCC1=C(Br)C(=O)N(c2noc(C(C)C)c2C#N)C1O` (centres unmarked) [A62]: the “ECHCG … application post-emergence” value worked out at 5.

Still in this data set, the particulars now being: Setaria faberi, rate 1000 g/Ha, scale 0-5.
Consider `CCC1=C(Br)C(=O)N(c2noc(C(C)(C)C)c2C#N)C1O` (centres unmarked) [A55], for which the “SETFA (Setaria faberi) damage score, application post-emergence” value (“SETFA (Setaria faberi) damage score” for short) is given as 5.

For `CCC1=C(Cl)C(=O)N(c2noc(C(C)(C)C)c2C#N)C1O` (centres unmarked) [A58], the “SETFA (Setaria faberi) damage score” value is 5.

`CCC1=C(Cl)C(=O)N(c2noc(C(C)(C)CC)c2C#N)C1O` (centres unmarked) [A60]: the “SETFA (Setaria faberi) damage score” value is given as 5.

In the case of `CC1=C(Br)C(=O)N(c2noc(C(C)C)c2C#N)C1O` (centres unmarked) [A61], the “SETFA (Setaria faberi) damage score” value came to 5.

In the case of `CCC1=C(Br)C(=O)N(c2noc(C(C)C)c2C#N)C1O` (centres unmarked) [A62], the “SETFA (Setaria faberi) damage score” value came out at 5.

The same data set, now with this note: Zea mays, rate 1000 g/Ha, scale 0-5.
Regarding `CCC1=C(Br)C(=O)N(c2noc(C(C)(C)C)c2C#N)C1O` (centres unmarked) [A55], the “ZEAMX (Zea mays) damage score, application post-emergence” value (from here on “ZEAMX (Zea mays) damage score”) is 4.

Regarding `CCC1=C(Cl)C(=O)N(c2noc(C(C)(C)C)c2C#N)C1O` (centres unmarked) [A58], the “ZEAMX (Zea mays) damage score” value turned out to be 5.

Take `CCC1=C(Cl)C(=O)N(c2noc(C(C)(C)CC)c2C#N)C1O` (centres unmarked) [A60]: the “ZEAMX (Zea mays) damage score” value was found to be 2.

Take `CC1=C(Br)C(=O)N(c2noc(C(C)C)c2C#N)C1O` (centres unmarked) [A61]: the “ZEAMX (Zea mays) damage score” value stood at 3.

Regarding `CCC1=C(Br)C(=O)N(c2noc(C(C)C)c2C#N)C1O` (centres unmarked) [A62], the “ZEAMX (Zea mays) damage score” value turned out to be 3.

A further data set has as its system a variety of test species. The data set can be described thus: Pre-emergence herbicidal activity (glasshouse, sprayed one day after sowing, evaluated after 13 days). It is filed as in vivo. Set-up: key: 5=total damage to plant; 0=no damage to plant. Particulars: ABUTH, application pre-emergence, rate 1000 g/Ha, scale 0-5. In a few lines: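 Damage was rated 13 days after treatment on a 0–5 scale (0 = no damage, 5 = total damage). Pots of seeds in standard soil were sprayed one day after sowing with an aqueous solution from an acetone/water (50:50), 0.5% Tween 20 formulation and kept at 24/16 °C day/night.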
As for `CCC1=C(Br)C(=O)N(c2noc(C(C)(C)C)c2C#N)C1O` (centres unmarked) [A55], the “Pre-emergence herbicidal damage score, ABUTH” value is 5.

Consider `CCC1=C(Cl)C(=O)N(c2noc(C(C)(C)C)c2C#N)C1O` (centres unmarked) [A58], for which the “Pre-emergence herbicidal damage score, ABUTH” value turned out to be 5.

Turning to `CCC1=C(Cl)C(=O)N(c2noc(C(C)(C)CC)c2C#N)C1O` (centres unmarked) [A60], the “Pre-emergence herbicidal damage score, ABUTH” value amounted to 5.

For the compound `CC1=C(Br)C(=O)N(c2noc(C(C)C)c2C#N)C1O` (centres unmarked) [A61], the “Pre-emergence herbicidal damage score, ABUTH” value amounted to 5.

Consider `CCC1=C(Br)C(=O)N(c2noc(C(C)C)c2C#N)C1O` (centres unmarked) [A62], for which the “Pre-emergence herbicidal damage score, ABUTH” value is reported as 5.

The data set is the same for the next values; noted with them: ALOMY, application pre-emergence, rate 1000 g/Ha, scale 0-5.
For the compound `CCC1=C(Br)C(=O)N(c2noc(C(C)(C)C)c2C#N)C1O` (centres unmarked) [A55], the “Pre-emergence herbicidal damage score, ALOMY” value is given as 4.

Regarding `CCC1=C(Cl)C(=O)N(c2noc(C(C)(C)C)c2C#N)C1O` (centres unmarked) [A58], the “Pre-emergence herbicidal damage score, ALOMY” value was 4.

With `CCC1=C(Cl)C(=O)N(c2noc(C(C)(C)CC)c2C#N)C1O` (centres unmarked) [A60], the “Pre-emergence herbicidal damage score, ALOMY” value turned out to be 3.

In the case of `CC1=C(Br)C(=O)N(c2noc(C(C)C)c2C#N)C1O` (centres unmarked) [A61], the “Pre-emergence herbicidal damage score, ALOMY” value was 4.

`CCC1=C(Br)C(=O)N(c2noc(C(C)C)c2C#N)C1O` (centres unmarked) [A62]: the “Pre-emergence herbicidal damage score, ALOMY” value is reported as 3.

The same data set, now with this note: AMARE, application pre-emergence, rate 1000 g/Ha, scale 0-5.
`CCC1=C(Br)C(=O)N(c2noc(C(C)(C)C)c2C#N)C1O` (centres unmarked) [A55]: the “Pre-emergence herbicidal damage score, AMARE” value was found to be 5.

For `CCC1=C(Cl)C(=O)N(c2noc(C(C)(C)C)c2C#N)C1O` (centres unmarked) [A58], the “Pre-emergence herbicidal damage score, AMARE” value was 5.

In the case of `CCC1=C(Cl)C(=O)N(c2noc(C(C)(C)CC)c2C#N)C1O` (centres unmarked) [A60], the “Pre-emergence herbicidal damage score, AMARE” value was 5.

As to `CC1=C(Br)C(=O)N(c2noc(C(C)C)c2C#N)C1O` (centres unmarked) [A61], the “Pre-emergence herbicidal damage score, AMARE” value is 5.

For `CCC1=C(Br)C(=O)N(c2noc(C(C)C)c2C#N)C1O` (centres unmarked) [A62], the “Pre-emergence herbicidal damage score, AMARE” value amounted to 5.

The data set is the same for the next values; noted with them: ECHCG, application pre-emergence, rate 1000 g/Ha, scale 0-5.
On to `CCC1=C(Br)C(=O)N(c2noc(C(C)(C)C)c2C#N)C1O` (centres unmarked) [A55], for which the “Pre-emergence herbicidal damage score, ECHCG” value is listed as 5.

Regarding `CCC1=C(Cl)C(=O)N(c2noc(C(C)(C)C)c2C#N)C1O` (centres unmarked) [A58], the “Pre-emergence herbicidal damage score, ECHCG” value turned out to be 5.

For `CCC1=C(Cl)C(=O)N(c2noc(C(C)(C)CC)c2C#N)C1O` (centres unmarked) [A60], the “Pre-emergence herbicidal damage score, ECHCG” value is reported as 4.

Turning to `CC1=C(Br)C(=O)N(c2noc(C(C)C)c2C#N)C1O` (centres unmarked) [A61], the “Pre-emergence herbicidal damage score, ECHCG” value amounted to 5.

For the compound `CCC1=C(Br)C(=O)N(c2noc(C(C)C)c2C#N)C1O` (centres unmarked) [A62], the “Pre-emergence herbicidal damage score, ECHCG” value is reported as 4.

The data set is the same for the next values; noted with them: SETFA, application pre-emergence, rate 1000 g/Ha, scale 0-5.
Take `CCC1=C(Br)C(=O)N(c2noc(C(C)(C)C)c2C#N)C1O` (centres unmarked) [A55]: the “Pre-emergence herbicidal damage score, SETFA” value came to 5.

In the case of `CCC1=C(Cl)C(=O)N(c2noc(C(C)(C)C)c2C#N)C1O` (centres unmarked) [A58], the “Pre-emergence herbicidal damage score, SETFA” value is given as 5.

In the case of `CCC1=C(Cl)C(=O)N(c2noc(C(C)(C)CC)c2C#N)C1O` (centres unmarked) [A60], the “Pre-emergence herbicidal damage score, SETFA” value is listed as 5.

In the case of `CC1=C(Br)C(=O)N(c2noc(C(C)C)c2C#N)C1O` (centres unmarked) [A61], the “Pre-emergence herbicidal damage score, SETFA” value came to 5.

As to `CCC1=C(Br)C(=O)N(c2noc(C(C)C)c2C#N)C1O` (centres unmarked) [A62], the “Pre-emergence herbicidal damage score, SETFA” value came out at 5.

Staying with this data set, now noted: ZEAMX, application pre-emergence, rate 1000 g/Ha, scale 0-5.
As to `CCC1=C(Br)C(=O)N(c2noc(C(C)(C)C)c2C#N)C1O` (centres unmarked) [A55], the “Pre-emergence herbicidal damage score, ZEAMX” value stood at 3.

As for `CCC1=C(Cl)C(=O)N(c2noc(C(C)(C)C)c2C#N)C1O` (centres unmarked) [A58], the “Pre-emergence herbicidal damage score, ZEAMX” value is reported as 4.

On to `CCC1=C(Cl)C(=O)N(c2noc(C(C)(C)CC)c2C#N)C1O` (centres unmarked) [A60], for which the “Pre-emergence herbicidal damage score, ZEAMX” value is 3.

On to `CC1=C(Br)C(=O)N(c2noc(C(C)C)c2C#N)C1O` (centres unmarked) [A61], for which the “Pre-emergence herbicidal damage score, ZEAMX” value is given as 3.

For the compound `CCC1=C(Br)C(=O)N(c2noc(C(C)C)c2C#N)C1O` (centres unmarked) [A62], the “Pre-emergence herbicidal damage score, ZEAMX” value is on record as 3.

System in another data set: not given
Assay: not given
Conditions: not given
In the case of `CCC1=C(Br)C(=O)N(c2noc(C(C)(C)C)c2C#N)C1O` (centres unmarked) [A55], the melting point (usually the temperature, or range, at which the solid turns liquid) fell in the range of 138 to 140 °C.

In turn, `CCC1=C(Cl)C(=O)N(c2noc(C(C)(C)C)c2C#N)C1O` (centres unmarked) [A58] registered a melting point of 134 to 136 °C.

Turning to `CCC1=C(Cl)C(=O)N(c2noc(C(C)(C)CC)c2C#N)C1O` (centres unmarked) [A60], the melting point lay in the range of 110 to 112 °C.

On to `CC1=C(Br)C(=O)N(c2noc(C(C)C)c2C#N)C1O` (centres unmarked) [A61], for which the melting point lay within 127 to 129 °C.

Regarding `CCC1=C(Br)C(=O)N(c2noc(C(C)C)c2C#N)C1O` (centres unmarked) [A62], the melting point is 106 to 108 °C.
